Experimental data published in patent publication US20190185567A1, “COMBINATIONS FOR THE TREATMENT OF CANCER” (IGNYTA, INC., priority 2016, published 2019).

What was measured:
4T1-Luc2-1A4 cells = test: 4T1-Luc2-1A4 mammary fat pad tumor model: tumor burden by caliper and BLI, metastases; type: in vivo, Balb/c mice; details: once daily for 15 days (Days 3-17); for Day 14 T/C (whole body BLI) / Day 14 median T/C (caliper measurements): p>0.05
Method: Female Envigo Balb/c mice (BALB/cAnNHsd) were used in this study. They were 6-7 weeks old on day 1 of the experiment. The animals were fed irradiated Harlan 2918.15 Rodent Diet and water ad libitum. Animals were housed in static cages with Bed-O'Cobs™ bedding inside Biobubble® Clean Rooms that provide H.E.P.A filtered air into the bubble environment at 100 complete air changes per hour. All treatments, imaging, body weight determinations, and tumor measurements were carried out in the bubble environment. The environment was controlled to a temperature range of 70°±2° F. and a humidity range of 30-70%.
4T1-Luc2-1A4 cells were obtained from PerkinElmer. They were grown in RPMI 1640 medium which was modified with 1% 100 mM Na pyruvate, 1% 1M HEPES buffer, 2.5 g/L glucose solution and supplemented with 10% non-heat-inactivated Fetal Bovine Serum (FBS) and 1% 100X Penicillin/Streptomycin/L-Glutamine (PSG). The growth environment was maintained in an incubator with a 5% CO2 atmosphere at 37° C. When expansion was complete, the cells (passage 5) were trypsinized using 0.25% trypsin-EDTA solution. Following cell detachment, the trypsin was inactivated by dilution with complete growth medium and any clumps of cells were separated by pipetting. The cells were centrifuged at 200 rcf for 8 minutes at 8° C., the supernatant was aspirated, and the pellet was re-suspended in cold Dulbecco's Phosphate Buffered Saline (DPBS) by pipetting. An aliquot of the homogeneous cell suspension was diluted in a trypan blue solution and counted using a Luna automated cell counter. The pre-implantation cell viability was 95%. The cell suspension was centrifuged at 200 rcf for 8 minutes at 8° C. The supernatant was aspirated and the cell pellet was re-suspended in cold 50% serum-free medium 50% Matrigel® to generate a final concentration of 1.0E+07 trypan-excluding cells/mL. The cell suspension was maintained on wet ice during implantation. Following implantation, an aliquot of the remaining cells was diluted with a trypan blue solution and counted to determine the post-implantation cell viability (95%).
Test animals were implanted subcutaneously into the mammary fat pad (MFP#4) on Day 0 with 5.0E+05 cells in 50 μL of serum free media in 50% Matrigel® using a 27-gauge needle and 1 mL syringe.
All mice were sorted into study groups based on body weight. The mice were distributed to ensure that the mean body weight for all groups was within 10% of the overall mean for the study population (group range 16.8-17.2 g). Treatment began on Day 3, prior to the tumors being palpable. All mice were dosed 0.2 mL/20 g. • Group 1: Vehicle Control (50% PEG400; 50% oleic acid) PO, once daily for 15 days (Days 3-17); • Group 2: N-[4-[(6,7-dimethoxy-4-quinolinyl)oxy]-3-fluorophenyl]-3-(4-fluorophenyl)-1,2,3,4-tetrahydro-1-(1-methylethyl)-2,4-dioxo-5-pyrimidinecarboxamide, 30 mg/kg PO, once daily for 15 days (Days 3-17); • Group 3: N-[4-[(6,7-dimethoxy-4-quinolinyl)oxy]-3-fluorophenyl]-3-(4-fluorophenyl)-1,2,3,4-tetrahydro-1-(1-methylethyl)-2,4-dioxo-5-pyrimidinecarboxamide, 10 mg/kg PO, once daily for 15 days (Days 3-17); • Group 4: N-[4-[(6,7-dimethoxy-4-quinolinyl)oxy]-3-fluorophenyl]-3-(4-fluorophenyl)-1,2,3,4-tetrahydro-1-(1-methylethyl)-2,4-dioxo-5-pyrimidinecarboxamide, 1 mg/kg PO, once daily for 15 days (Days 3-17); • Group 5: anti-CTLA-4 clone 9D9 antibody, 10 mg/kg IP, every third day for 2 treatments, then a 3 day rest for 2.5 weeks (Days 3, 6, 10, 13, 17) • Group 6: anti-CTLA-4 clone 9D9 antibody, 10 mg/kg IP, every third day for 2 treatments, then a 3 day rest for 2.5 weeks (Days 3, 6, 10, 13, 17), plus N-[4-[(6,7-dimethoxy-4-quinolinyl)oxy]-3-fluorophenyl]-3-(4-fluorophenyl)-1,2,3,4-tetrahydro-1-(1-methylethyl)-2,4-dioxo-5-pyrimidinecarboxamide, 30 mg/kg PO, once daily for 15 days (Days 3-17). […]

[1] = test system: hematopoietic cell subsets; test: Hematopoietic cell subset mean percentages in tumor and spleen, subjective comparison to the Control Group; type: in vivo, Balb/c mice; details: once daily (Days 3-17); for CD45+ cells that expressed PD-L1, increase vs Control Group: spleen
[2] = Assessment of side effects (tolerability, mortality, body weight); type: in vivo; details: once daily for 15 days (Days 3-17); for mean body weight loss: highest at study termination
Method: Animals were weighed on each day of treatment. Individual body weights were recorded three times weekly.
In this report, a dosage level is described as tolerated if treatment-related weight loss (during and two weeks after treatment) is <20% and mortality during this period in the absence of potentially lethal tumor burdens is <10%.
Upon death or euthanasia, all animals were necropsied to provide a general assessment of potential cause of death and perhaps target organs for toxicity. The presence or absence of metastases was also noted.

**Q.** With `COc1cc2nccc(Oc3ccc(NC(=O)c4cn(C(C)C)c(=O)n(-c5ccc(F)cc5)c4=O)cc3F)c2cc1OC` [N-[4-[(6,7-dimethoxy-4-quinolinyl)oxy]-3-fluorophenyl]-3-(4-fluorophenyl)-1,2,3,4-tetrahydro-1-(1-methylethyl)-2,4-dioxo-5-pyrimidinecarboxamide] as the compound, how does the “incidence of ex vivo lung metastases” value (4T1-Luc2-1A4 cells; 1 mg/kg PO) read?
**A.** 100%

**Q.** What about the tumor free survivors (4T1-Luc2-1A4 cells; 1 mg/kg PO) of the same compound?
**A.** 0%

**Q.** And the “incidence of axillary lymph node metastases based on in vivo imaging” value (shortened to “incidence … in vivo imaging”) (4T1-Luc2-1A4 cells; 1 mg/kg PO, 8/14)?
**A.** 57%

**Q.** What about the “Day 14 T/C (whole body BLI)” value (4T1-Luc2-1A4 cells; 1 mg/kg PO) of the same compound?
**A.** 139%

**Q.** And the “Day 14 median T/C (caliper measurements)” value (4T1-Luc2-1A4 cells; 1 mg/kg PO)?
**A.** 131%

**Q.** And the “incidence of ex vivo lung metastases” value (4T1-Luc2-1A4 cells; 10 mg/kg PO)?
**A.** 100%

**Q.** And the tumor free survivors (4T1-Luc2-1A4 cells; 10 mg/kg PO)?
**A.** 0%

**Q.** And the “incidence … in vivo imaging” value (4T1-Luc2-1A4 cells; 10 mg/kg PO, 2/14)?
**A.** 14%

**Q.** What about the “Day 14 T/C (whole body BLI)” value (4T1-Luc2-1A4 cells; 10 mg/kg PO) of the same compound?
**A.** 133%

**Q.** What about the “Day 14 median T/C (caliper measurements)” value (4T1-Luc2-1A4 cells; 10 mg/kg PO) of the same compound?
**A.** 100%

**Q.** And the “incidence of ex vivo lung metastases” value (4T1-Luc2-1A4 cells; 30 mg/kg PO)?
**A.** 100%

**Q.** What about the tumor free survivors (4T1-Luc2-1A4 cells; 30 mg/kg PO) of the same compound?
**A.** no tumor free survivors

**Q.** And the “incidence … in vivo imaging” value (4T1-Luc2-1A4 cells; 30 mg/kg PO, 3/14)?
**A.** 21%

**Q.** And the “Day 14 T/C (whole body BLI)” value (4T1-Luc2-1A4 cells; 30 mg/kg PO)?
**A.** 54%

**Q.** And the “Day 14 median T/C (caliper measurements)” value (4T1-Luc2-1A4 cells; 30 mg/kg PO)?
**A.** 55%

**Q.** And the “NK cells that produced IFN-γ upon ex-vivo re-stimulation, increase vs Control Group” value ([1]; NK cells isolated from spleens, 30 mg/kg PO)?
**A.** 22%

**Q.** And the “NK cells that produced IFN-γ upon ex-vivo re-stimulation, increase vs Control Group” value ([1]; NK cells isolated from tumors, 30 mg/kg PO)?
**A.** 75%

**Q.** And the “CD45+ cells that expressed PD-L1, increase vs Control Group” value ([1]; 10 mg/kg PO)?
**A.** 8%

**Q.** What about the “CD45+ cells that expressed PD-L1, increase vs Control Group” value ([1]; 30 mg/kg PO) of the same compound?
**A.** 16%

**Q.** What about the “CD45+ cells expressing PD-L1, reduction vs Control Group” value ([1]; tumor, 1 mg/kg PO) of the same compound?
**A.** 14%

**Q.** What about the “CD4+ T subset as a percent of total T cells, reduction vs Control Group” value ([1]; tumor, 10 mg/kg PO) of the same compound?
**A.** 51%

**Q.** What about the “CD45+ cells expressing PD-L1, reduction vs Control Group” value ([1]; tumor, 10 mg/kg PO) of the same compound?
**A.** 5%

**Q.** What about the “Treg subset as a percent of total T cells, reduction vs Control Group” value ([1]; tumor, 10 mg/kg PO) of the same compound?
**A.** 61%

**Q.** What about the “Tumor-derived cells that expressed CD45, increase vs Control Group” value ([1]; tumor, 10 mg/kg PO) of the same compound?
**A.** 18%

**Q.** And the “CD4+ T subset as a percent of total T cells, reduction vs Control Group” value ([1]; tumor, 30 mg/kg PO)?
**A.** 54%

**Q.** What about the “G-MDSC subset, reduction vs Control Group” value ([1]; tumor, 30 mg/kg PO) of the same compound?
**A.** 18%

**Q.** And the “M2 MAC subset, increase vs Control Group” value ([1]; tumor, 30 mg/kg PO)?
**A.** 72%

**Q.** And the “Treg subset as a percent of total T cells, reduction vs Control Group” value ([1]; tumor, 30 mg/kg PO)?
**A.** 69%

**Q.** And the “Tumor-derived cells that expressed CD45, increase vs Control Group” value ([1]; tumor, 30 mg/kg PO)?
**A.** 14%

**Q.** What about the tolerability ([2]; 1 mg/kg PO) of the same compound?
**A.** well-tolerated

**Q.** And the treatment-related mortality ([2]; 1 mg/kg PO)?
**A.** no treatment-related mortality

**Q.** What about the “mean body weight loss” value ([2]; 1 mg/kg PO) of the same compound?
**A.** 2.1%

**Q.** What about the tolerability ([2]; 10 mg/kg PO) of the same compound?
**A.** well-tolerated

**Q.** What about the treatment-related mortality ([2]; 10 mg/kg PO) of the same compound?
**A.** no treatment-related mortality

**Q.** What about the “mean body weight loss” value ([2]; 10 mg/kg PO) of the same compound?
**A.** 4.2%

**Q.** What about the body weight change ([2]; 30 mg/kg PO) of the same compound?
**A.** body weight gain

**Q.** What about the tolerability ([2]; 30 mg/kg PO) of the same compound?
**A.** well-tolerated

**Q.** And the treatment-related mortality ([2]; 30 mg/kg PO)?
**A.** no treatment-related mortality
